Data on 38 compounds can be found in patent US7759367B2, “Pharmaceutical compositions and their uses” (Eisai R&D Management Co., Ltd., priority 2001, dated 2010).

One experiment deals with male mice of ddy strain. The experiment in a line: Anticonvulsant action induced by AMPA (Test Example 2). In kind it is in vivo. Particulars: 25 mg/kg orally, AMPA 2 nmole/5 μl/minute/mouse into lateral ventricle 30 minutes or 1 hour after dosing. The procedure:
A test compound was suspended in a 0.5% methyl cellulose solution or in sesame oil and was orally administered (25 mg/kg) to male mice of ddy strain. After 30 minutes or 1 hour from the oral administration, AMPA was continuously injected (2 nmole/5 μl/minute/mouse) into lateral ventricle to induce the convulsions. The effect was judged by a time-extending action until the convulsion takes place by a continuous injection of AMPA.
As for `O=c1c(-c2cccnc2Cl)cc(-c2ccccn2)cn1-c1ccccc1` [Example 4, 3-(2-Chloro-3-pyridyl)-5-(2-pyridyl)-1-phenyl-1,2-dihydropyridin-2-one], the “Anticonvulsant action (time-extending action until convulsion by continuous AMPA injection)” value (“Anticonvulsant action” below) is on record as “significant anticonvulsant action”.

On to `N#Cc1ccccc1-c1cc(-c2ccccc2)cn(-c2cccnc2)c1=O` [Example 47, 3-(2-Cyanophenyl)-5-phenyl-1-(3-pyridyl)-1,2-dihydropyridin-2-one], for which the “Anticonvulsant action” value is given as “significant anticonvulsant action”.

As to `O=c1c(-c2ccccc2Cl)cc(-c2ccccn2)cn1-c1ccccc1` [Example 57, 3-(2-Chlorophenyl)-5-(2-pyridyl)-1-phenyl-1,2-dihydropyridin-2-one], the “Anticonvulsant action” value was “significant anticonvulsant action”.

For the compound `O=c1c(-c2ccccc2)cc(-c2ccccn2)cn1-c1ccccc1` [Example 61, 3-Phenyl-5-(2-pyridyl)-1-phenyl-1,2-dihydropyridin-2-one], the “Anticonvulsant action” value is “significant anticonvulsant action”.

For the next experiment, the system named is AMPA receptor.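 Note: neurons cultured at least 8 to 10 days atop an astrocyte layer in 96-well plates, calcium entry read as the change in Fura2 fluorescence ratio at 340/380 nm excitation.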
Experiment: not given
Particulars: primary culture of rat embryo cerebral cortex nerve cells; Fura2-AM; 2 μM AMPA; 1 μM MK-801.
For `N#Cc1ccccc1-c1cc(-c2ccccn2)cn(-c2cccc([N+](=O)[O-])c2)c1=O` [Example 8, 3-(2-Cyanophenyl)-5-(2-pyridyl)-1-(3-nitrophenyl)-1,2-dihydropyridin-2-one], the IC50 was found to be 100 nM. Still for that read-out and setting: the result for `CS(=O)(=O)Nc1cccc(-n2cc(-c3ccccn3)cc(-c3ccccc3C#N)c2=O)c1` [Example 10, 3-(2-Cyanophenyl)-5-(2-pyridyl)-1-(3-methylsulfonylaminophenyl)-1,2-dihydropyridin-2-one] reads 50 nM; that for `CNc1cccc(-n2cc(-c3ccccn3)cc(-c3ccccc3C#N)c2=O)c1` [Example 11, 3-(2-Cyanophenyl)-5-(2-pyridyl)-1-(3-methylaminophenyl)-1,2-dihydropyridin-2-one], 60 nM. In turn, `COC(=O)c1cccc(-n2cc(-c3ccccn3)cc(-c3ccccc3C#N)c2=O)c1` [Example 14, 3-(2-Cyanophenyl)-5-(2-pyridyl)-1-(3-methoxycarbonylphenyl)-1,2-dihydropyridin-2-one] had an IC50 of 100 nM. Same read-out and setting: to `CNC(=O)c1cccc(-n2cc(-c3ccccn3)cc(-c3ccccc3C#N)c2=O)c1` [Example 15, 3-(2-Cyanophenyl)-5-(2-pyridyl)-1-(3-methylaminocarbonylphenyl)-1,2-dihydropyridin-2-one] belongs 50 nM; to `N#Cc1ccccc1-c1cc(-c2ccccn2)cn(-c2cccc(C=O)c2)c1=O` [Example 20, 3-(2-Cyanophenyl)-5-(2-pyridyl)-1-(3-formylphenyl)-1,2-dihydropyridin-2-one], 40 nM; to `N#Cc1ccccc1-c1cc(-c2ccccn2)cn(-c2cccc(CO)c2)c1=O` [Example 21, 3-(2-Cyanophenyl)-5-(2-pyridyl)-1-(3-hydroxymethylphenyl)-1,2-dihydropyridin-2-one], 30 nM.

`N#CCc1cccc(-n2cc(-c3ccccn3)cc(-c3ccccc3C#N)c2=O)c1` [Example 22, 3-(2-Cyanophenyl)-5-(2-pyridyl)-1-(3-cyanomethylphenyl)-1,2-dihydropyridin-2-one] had an IC50 of 60 nM. Regarding `CSc1ccc(-n2cc(-c3ccccn3)cc(-c3ccccc3C#N)c2=O)cc1` [Example 26, 3-(2-Cyanophenyl)-5-(2-pyridyl)-1(4-methylthiophenyl)-1,2-dihydropyridin-2-one], the IC50 was 20 nM. The same measure, in the same setting: the result for `CS(=O)(=O)c1ccc(-n2cc(-c3ccccn3)cc(-c3ccccc3C#N)c2=O)cc1` [Example 27, 3-(2-Cyanophenyl)-5-(2-pyridyl)-1-(4-methylsulfonylphenyl)-1,2-dihydropyridin-2-one] reads 50 nM. `N#Cc1ccccc1-c1cc(-c2ccccn2)c(=O)n(-c2ccccc2)c1` [Example 33, 3-(2-Pyridyl)-5-(2-cyanophenyl)-1-phenyl-1,2-dihydropyridin-2-one] registered an IC50 of 700 nM.

The compound `COc1ccc(-c2cc(-c3ccccn3)cn(-c3ccccc3)c2=O)cn1` [Example 77, 3-(2-Methoxy-5-pyridyl)-5-(2-pyridyl)-1-phenyl-1,2-dihydropyridin-2-one] showed an IC50 of 20 nM. With `N#Cc1cccnc1-c1cc(-c2ccccc2)cn(-c2cccnc2)c1=O` [Example 79, 3-(3-Cyano-2-pyridyl)-5-phenyl-1-(3-pyridyl)-1,2-dihydropyridin-2-one], half-maximal inhibition (IC50) required 2600 nM. Regarding `COc1ccc(-n2cc(-c3ccccn3)cc(-c3cccnc3F)c2=O)cn1` [Example 86, 3-(2-Fluoro-3-pyridyl)-5-(2-pyridyl)-1-(2-methoxy-5-pyridyl)-1,2-dihydropyridin-2-one], it took 1900 nM to reach half-maximal inhibition (IC50).

As for `N#Cc1ccccc1-c1cc(-c2ccccn2)cn(-c2cccc(F)c2)c1=O` [Example 92, 3-(2-Cyanophenyl)-5-(2-pyridyl)-1-(3-fluorophenyl)-1,2-dihydropyridin-2-one], the IC50 amounted to 50 nM. `COc1cccc(-n2cc(-c3ccccn3)cc(-c3ccccc3C#N)c2=O)c1` [Example 96, 3-(2-Cyanophenyl)-5-(2-pyridyl)-1-(3-methoxyphenyl)-1,2-dihydropyridin-2-one] had an IC50 of 60 nM. On the same count and under the same terms, to `N#Cc1ccccc1-c1cc(-c2ccccn2)cn(-c2cccc(Cl)c2)c1=O` [Example 102, 3-(2-Cyanophenyl)-5-(2-pyridyl)-1-(3-chlorophenyl)-1,2-dihydropyridin-2-one] belongs 20 nM; to `Cc1cccc(-n2cc(-c3ccccn3)cc(-c3ccccc3C#N)c2=O)c1` [Example 103, 3-(2-Cyanophenyl)-5-(2-pyridyl)-1-(3-tolyl)-1,2-dihydropyridin-2-one], 30 nM.

As to `N#Cc1ccccc1-c1cc(-c2ccccn2)cn(-c2ccsc2)c1=O` [Example 105, 3-(2-Cyanophenyl)-5-(2-pyridyl)-1-(thiophen-3-yl)-1,2-dihydropyridin-2-one], the IC50 is 30 nM. The same measure, in the same setting: to `N#Cc1ccccc1-c1cc(-c2ccccn2)cn(-c2ccoc2)c1=O` [Example 106, 3-(2-Cyanophenyl)-5-(2-pyridyl)-1-(3-furyl)-1,2-dihydropyridin-2-one] belongs 70 nM; to `Cc1ccc(-n2cc(-c3ccccn3)cc(-c3ccccc3C#N)c2=O)cc1` [Example 107, 3-(2-Cyanophenyl)-5-(2-pyridyl)-1-(4-tolyl)-1,2-dihydropyridin-2-one], 70 nM.

As to `N#Cc1ccccc1-c1cc(-c2ccccn2)cn(-c2ccc(C(F)(F)F)cc2)c1=O` [Example 108, 3-(2-Cyanophenyl)-5-(2-pyridyl)-1-(4-trifluoromethylphenyl)-1,2-dihydropyridin-2-one], the IC50 came out at 30 nM. The same measure, in the same setting: the result for `COc1ccc(-n2cc(-c3ccccn3)cc(-c3ccccc3C#N)c2=O)cn1` [Example 109, 3-(2-Cyanophenyl)-5-(2-pyridyl)-1-(2-methoxypyridin-5-yl)-1,2-dihydropyridin-2-one] reads 10 nM; that for `COc1cncc(-n2cc(-c3ccccn3)cc(-c3ccccc3C#N)c2=O)c1` [Example 118, 3-(2-Cyanophenyl)-5-(2-pyridyl)-1-(3-methoxypyridin-5-yl)-1,2-dihydropyridin-2-one], 100 nM. The same measure, in the same setting: to `O=c1c(-c2ccc(Cl)cc2Cl)cc(-c2ccccn2)cn1-c1cccnc1` [Example 131, 3-(2,4-Dichlorophenyl)-5-(2-pyridyl)-1-(3-pyridyl)-1,2-dihydropyridin-2-one] belongs 37000 nM. `N#Cc1ccccc1-c1cc(-c2ccccn2)cn(-c2cccc(O)c2)c1=O` [Example 315, 3-(2-Cyanophenyl)-1-(3-hydroxyphenyl)-5-(2-pyridyl)-1,2-dihydropyridin-2-one] returned an IC50 of 80 nM. Compound `O=c1c(C2C3CC4CC(C3)CC2C4)cc(-c2ccccn2)cn1-c1ccccc1` (centres unmarked) [Example 387, 3-(2-Adamantyl)-5-(2-pyridyl)-1-phenyl-1,2-dihydropyridin-2-one] gave an IC50 of 7000 nM. Turning to `CC1=NN=C(c2ccc(N)cc2)c2cc3c(cc2C1)OCO3` [GYKI 52466, reference compound], inhibition was half-maximal at 9020 nM (IC50).

Still in this experiment, the particulars now being: suppression of AMPA-induced calcium influx into nerve cells; Table 2.
On to `COc1ccc(-c2cc(-c3ccccc3C#N)c(=O)n(-c3ccccc3)c2)cn1` [Example 200, 3-(2-Cyanophenyl)-5-(2-methoxypyridin-5-yl)-phenyl-1,2-dihydropyridin-2-one], for which the IC50 amounted to 2000 nM.

Turning to `N#Cc1ccccc1-c1cc(-c2ccccn2)cn(-c2ccc(N)cc2)c1=O` [Example 215, 1-(4-Aminophenyl)-3-(2-cyanophenyl)-5-(2-pyridyl)-1,2-dihydropyridin-2-one], the IC50 stood at 100 nM. For the compound `N#Cc1ccccc1-c1cc(-c2ccccn2)cn(-c2cccc(OCCCN3CCCCC3)c2)c1=O` [Example 244, 3-(2-Cyanophenyl)-1-(3-piperidinopropoxyphenyl)-5-(2-pyridyl)-1,2-dihydropyridin-2-one], the IC50 was found to be 1800 nM. On the same count and under the same terms, the result for `O=c1c(-c2cccnc2F)cc(-c2ncccn2)cn1-c1cccnc1` [Example 263, 3-(2-Fluoropyridin-3-yl)-1-(3-pyridyl)-5-(2-pyrimidinyl)-1,2-dihydropyridin-2-one] reads 1000 nM. As to `O=c1c(-c2cccc3ccccc23)cc(-c2ccccn2)cn1-c1cccnc1` [Example 279, 3-(1-Naphthyl)-5-(2-pyridyl)-1-(3-pyridyl)-1,2-dihydropyridin-2-one], the IC50 worked out at 3710 nM. Same read-out and setting: the result for `O=c1c(-c2cc3ccccc3n2S(=O)(=O)c2ccccc2)cc(-c2ccccn2)cn1-c1ccccc1` [Example 293, 3-(1-Benzenesulfonylindol-2-yl)-1-phenyl-5-(2-pyridyl)-1,2-dihydropyridin-2-one] reads 3300 nM.

By IC50 is commonly meant the concentration that inhibits the measured activity by half.
